Reference: the supplement of paper PMC10307832

Assays:
Experiment in all cases: relative viability (nuclei count vs DMSO), 5 days (fraction); higher = more cells survive
Bosutinib + OSI-027 = compound: COc1cc(Nc2c(C#N)cnc3cc(OCCCN4CCN(C)CC4)c(OC)cc23)c(Cl)cc1Cl [Bosutinib] + COc1cccc2cc(-c3nc([C@H]4CC[C@H](C(=O)O)CC4)n4ncnc(N)c34)[nH]c12 [OSI-027] (partner 0.5 µM)
In short: (§1)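 After 5 days of treatment, lung cancer cells in 1536-well plates were fixed and stained in a single step (final 0.05% Triton X-100, 1% formaldehyde, 1 ug/ml Hoechst) and their nuclei counted on 4× images. Treatment had been applied by pin tool the day after seeding as one drug alone or as a fixed anchor-drug dose with five library-drug doses (not always all listed) in √10 steps. Relative viability is the nuclei count of treated wells divided by that of vehicle wells, and values are medians of duplicate plates.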

Bosutinib + Olaparib = compound: COc1cc(Nc2c(C#N)cnc3cc(OCCCN4CCN(C)CC4)c(OC)cc23)c(Cl)cc1Cl [Bosutinib] + O=C(c1cc(Cc2n[nH]c(=O)c3ccccc23)ccc1F)N1CCN(C(=O)C2CC2)CC1 [Olaparib] (partner 8 µM)
In short: as §1

Bosutinib + Trametinib = compound: COc1cc(Nc2c(C#N)cnc3cc(OCCCN4CCN(C)CC4)c(OC)cc23)c(Cl)cc1Cl [Bosutinib] + CC(=O)Nc1cccc(-n2c(=O)n(C3CC3)c(=O)c3c(Nc4ccc(I)cc4F)n(C)c(=O)c(C)c32)c1 [Trametinib] (partner 0.02 µM)
In short: as §1

Bosutinib + Tozasertib = compound: COc1cc(Nc2c(C#N)cnc3cc(OCCCN4CCN(C)CC4)c(OC)cc23)c(Cl)cc1Cl [Bosutinib] + Cc1cc(Nc2cc(N3CCN(C)CC3)nc(Sc3ccc(NC(=O)C4CC4)cc3)n2)n[nH]1 [Tozasertib] (partner 0.1 µM)
In short: as §1

Bosutinib + Navitoclax = compound: COc1cc(Nc2c(C#N)cnc3cc(OCCCN4CCN(C)CC4)c(OC)cc23)c(Cl)cc1Cl [Bosutinib] + CC1(C)CCC(c2ccc(Cl)cc2)=C(CN2CCN(c3ccc(C(=O)NS(=O)(=O)c4ccc(N[C@H](CCN5CCOCC5)CSc5ccccc5)c(S(=O)(=O)C(F)(F)F)c4)cc3)CC2)C1 [Navitoclax] (partner 0.5 µM)
In short: as §1

Row | Cell Line | relative viability (Bosutinib + OSI-027; first compound 0.01 µM) | relative viability (Bosutinib + OSI-027; first compound 0.03162 µM) | relative viability (Bosutinib + OSI-027; first compound 0.1 µM) | relative viability (Bosutinib + OSI-027; first compound 1 µM) | relative viability (Bosutinib + Olaparib; first compound 0.01 µM) | relative viability (Bosutinib + Olaparib; first compound 0.03162 µM) | relative viability (Bosutinib + Olaparib; first compound 0.1 µM) | relative viability (Bosutinib + Olaparib; first compound 1 µM) | relative viability (Bosutinib + Trametinib; first compound 0.01 µM) | relative viability (Bosutinib + Trametinib; first compound 0.03162 µM) | relative viability (Bosutinib + Trametinib; first compound 0.1 µM) | relative viability (Bosutinib + Trametinib; first compound 1 µM) | relative viability (Bosutinib + Tozasertib; first compound 0.01 µM) | relative viability (Bosutinib + Tozasertib; first compound 0.03162 µM) | relative viability (Bosutinib + Tozasertib; first compound 0.1 µM) | relative viability (Bosutinib + Tozasertib; first compound 1 µM) | relative viability (Bosutinib + Navitoclax; first compound 0.01 µM) | relative viability (Bosutinib + Navitoclax; first compound 0.03162 µM) | relative viability (Bosutinib + Navitoclax; first compound 0.1 µM) | relative viability (Bosutinib + Navitoclax; first compound 1 µM)
1 | NCI-H2347 | 0.347 | 0.436 | 0.436 | 0.385 | 0.491 | 0.609 | 0.545 | 0.539 | 0.309 | 0.27 | 0.297 | 0.307 | 0.599 | 0.571 | 0.638 | 0.514 | 0.797 | 0.793 | 0.752 | 0.781
2 | NCI-H2405 | 0.634 | 0.619 | 0.615 | 0.629 | 0.978 | 0.887 | 0.902 | 0.691 | 0.659 | 0.653 | 0.605 | 0.396 | 0.738 | 0.796 | 0.743 | 0.661 | 0.943 | 0.812 | 0.892 | 0.477
3 | NCI-H3122 | 1.05 | 1.04 | 1.03 | 1.17 | 0.678 | 0.653 | 0.658 | 0.559 | 0.203 | 0.273 | 0.205 | 0.256 | 0.495 | 0.547 | 0.405 | 0.431 | 0.99 | 0.972 | 1.01 | 1.03
4 | PC-3 [JPC-3] | 0.812 | 0.685 | 0.745 | 0.54 | 1.08 | 1.09 | 1.06 | 0.663 | 0.725 | 0.691 | 0.647 | 0.467 | 0.856 | 0.854 | 0.92 | 0.819 | 0.856 | 0.797 | 0.807 | 0.768
5 | PC-14 | 0.961 | 0.688 | 0.773 | 0.192 | 0.241 | 0.342 | 0.208 | 0.21 | 0.721 | 0.675 | 0.491 | 0.13 | 0.581 | 0.501 | 0.473 | 0.208 | 0.967 | 0.975 | 1.02 | 0.474
6 | RERF-LC-KJ | 0.594 | 0.59 | 0.607 | 0.473 | 0.883 | 0.867 | 0.958 | 0.989 | 0.733 | 0.809 | 0.902 | 0.826 | 0.58 | 0.436 | 0.491 | 0.599 | 0.845 | 1.08 | 0.893 | 0.743
7 | SK-LU-1 | 0.335 | 0.362 | 0.331 | 0.222 | 0.474 | 0.686 | 0.5 | 0.383 | 0.43 | 0.504 | 0.498 | 0.344 | 0.305 | 0.289 | 0.341 | 0.283 | 0.714 | 0.929 | 0.779 | 0.739
8 | SK-MES-1 | 0.64 | 0.681 | 0.671 | 0.38 | 0.671 | 0.896 | 0.798 | 0.458 | 0.55 | 0.547 | 0.547 | 0.39 | 0.95 | 0.927 | 0.844 | 0.854 | 1.21 | 0.97 | 1.1 | 1.3
9 | SW 1573 | 0.695 | 0.67 | 0.656 | 0.612 | 0.533 | 0.457 | 0.528 | 0.484 | 0.571 | 0.614 | 0.652 | 0.504 | 0.24 | 0.166 | 0.119 | 0.202 | 0.996 | 0.998 | 0.979 | 0.919
10 | UMC-11 | 0.48 | 0.478 | 0.423 | 0.402 | 0.64 | 0.672 | 0.248 | 0.686 | 0.724 | 0.723 | 0.686 | 0.678 | 0.202 | 0.191 | 0.189 | 0.214 | 0.256 | 0.316 | 0.333 | 0.33
